Results as given in patent US12595251B2, “Amidines and amidine analogs for the treatment of bacterial infections and potentiation antibiotics” (GEORGIA STATE UNIVERSITY RESEARCH FOUNDATION, INC., priority 2018, dated 2026).
Values after ≈ are worked out from the molar mass of the structure shown. Where two headings read alike, the source gives them in different places.

Columns and labels:
B. subtilis = test: Sensitization of B. subtilis to erythromycin (sensitization fold from IC90, OD600, 20 h); assay type: cell-based, Bacillus subtilis; conditions: for SF (B. subtilis): sensitization fold = IC90 of erythromycin without/with compound, compound concentration not given, T=toxic; for SF (B. subtilis) at 6 μM: compound at 6 μM; for SF (B. subtilis) at 12 μM: compound at 12 μM
Method: (§1) E. coli bacteria were cultured in Miller's broth at 37° C. overnight prior to treatment. B. subtilis bacteria were cultured in nutrient broth at 37° C. overnight prior to treatment. […] Bacterial density was measured based on OD600.

E. coli = test: Sensitization of E. coli to erythromycin (sensitization fold from IC90, OD600, 20 h); assay type: cell-based, Escherichia coli; conditions: NA=no activity; for SF (E. coli) at 25 μM: compound at 25 μM; for SF (E. coli) at 12.5 μM: compound at 12.5 μM
Method: as §1

M. smegmatis = test: Antibacterial activity against M. smegmatis (MIC, OD600, 48 h); assay type: cell-based, Mycobacterium smegmatis; conditions: Mycolicibacterium smegmatis, MIC = 90% growth inhibition, 7H9 media, NA=no activity
wild-type E. coli = test: Sensitization of wild-type E. coli toward antibiotics (MIC of antibiotic with/without sensitizer); assay type: cell-based, Escherichia coli; conditions: wild-type E. coli; for MIC: Escherichia coli, antibiotic alone, read-out: MIC of AB only; for MIC of AB with Compound C (5 μg/ml) / FIC: antibiotic plus Compound C 5 μg/ml; for FIC: fractional inhibitory concentration
Method: Bacteria were cultured with the antibiotic at various concentrations in the presence or absence of bacterial sensitizer for 24 hours at 37° C. Bacterial growth density was determined by measuring OD600 (absorbance measured at a wavelength of 600 nm). […]
The formula for calculating FIC is shown below: […]

[1] = tested on: NDM-1 over-expressing E. coli; test: microbe, parasite or virus in culture; assay type: cell-based, Escherichia coli; conditions: for MIC: Escherichia coli; for Sensitization fold: MIC of antibiotic only / MIC with Compound C 5 μg/ml
[2] = antibiotic alone, read-out: MIC of AB only
[3] = antibiotic plus Compound C 5 μg/ml

## N=C(N)c1ccc(OCc2ccc(COc3ccc(C(=N)N)cc3)cc2)cc1 [drawing 728]
B. subtilis; NA=no activity
  SF (B. subtilis): <2

## Cc1cc(COc2cccc(C(=N)N)c2)cc(COc2cccc(C(=N)N)c2)c1 [drawing 743]
B. subtilis; erythromycin, NA=no activity
  SF (B. subtilis) at 6 μM: 8 fold
  SF (B. subtilis) at 12 μM: 32 fold
E. coli; erythromycin, compound at 12 μM
  SF (E. coli) at 12 μM: 2 fold
E. coli; erythromycin
  SF (E. coli) at 25 μM: 8 fold

## Cc1cc(COc2ccc(C(=N)NC(C)C)cc2)cc(COc2ccc(C(=N)NC(C)C)cc2)c1 [drawing 815]
M. smegmatis
  MIC: 3 µM (≈ 1.42 µg/mL)

## N=C(N)c1ccc(OCc2cccc(COc3ccc(C(=N)N)cc3)c2F)cc1 [drawing 806]
M. smegmatis
  MIC: 12 µM (≈ 4.71 µg/mL)

## COc1cc(C(=N)N)ccc1OCc1cc(COc2ccc(C(=N)N)cc2OC)cc(C(C)(C)C)c1 [drawing 741]
B. subtilis; erythromycin, NA=no activity
  SF (B. subtilis) at 6 μM: 2 fold
  SF (B. subtilis) at 12 μM: 8 fold
E. coli; erythromycin, compound at 6 μM
  SF (E. coli) at 6 μM: 2 fold
E. coli; erythromycin
  SF (E. coli) at 12.5 μM: 8 fold

## Cn1c(-c2ccc(-c3ccc(C(=N)N)cc3)s2)nc2cc(-c3ccc(C(=N)N)cc3)ccc21 [drawing 819]
M. smegmatis
  MIC: 6 µM (≈ 2.7 µg/mL)

## O=C(N[C@H](CO)[C@H](O)c1ccc([N+](=O)[O-])cc1)C(Cl)Cl [Chloramphenicol, chloramphenicol]
wild-type E. coli; 24 h
  MIC: 12.5 µg/mL
wild-type E. coli
  MIC of AB with Compound C (5 μg/ml): 1.5 µg/mL
  FIC: 0.22
[1]; [2]
  MIC: 6.25 µg/mL
[1]
  Sensitization fold: 8
[1]; [3]
  FIC: 0.22
  MIC of AB with Compound C (5 μg/ml): 0.8 µg/mL

## N=C(N)c1ccc2nc(-c3ccc(OCC(F)(F)C(F)(F)COc4ccc(-c5nc6ccc(C(=N)N)cc6[nH]5)cc4)cc3)[nH]c2c1 [drawing 801]
M. smegmatis
  MIC: 6 µM (≈ 3.78 µg/mL)

## COc1cc(C(=N)N)ccc1OCc1cccc(COc2ccc(C(=N)N)cc2OC)c1F [drawing 817]
M. smegmatis
  MIC: 6 µM (≈ 2.71 µg/mL)

## N=C(N)c1ccc(OCc2cccc(COc3ccc(C(=N)N)cc3F)c2F)c(F)c1 [drawing 805]
M. smegmatis
  MIC: 12 µM (≈ 5.14 µg/mL)

## Cc1cc(COc2ccc(C(=N)N)cc2)nc(COc2ccc(C(=N)N)cc2)c1
B. subtilis; erythromycin, NA=no activity
  SF (B. subtilis) at 6 μM: 8 fold
  SF (B. subtilis) at 12 μM: 32 fold
B. subtilis; NA=no activity
  SF (B. subtilis): > 30
E. coli; erythromycin
  SF (E. coli) at 12.5 μM: 8 fold
  SF (E. coli) at 25 μM: 32 fold
E. coli; sensitization fold = IC90 of erythromycin without/with compound, compound concentration not given, T=toxic
  SF (E. coli): 33

## N=C(N)c1ccc(OCc2cccc(COc3ccc(C(=N)N)cc3)c2)cc1 [drawing 821]
M. smegmatis
  MIC: 12 µM (≈ 4.49 µg/mL)

## Cc1cc(COc2ccc(C3=NCCN3)cc2)cc(COc2ccc(C3=NCCN3)cc2)c1 [drawing 723]
B. subtilis; NA=no activity
  SF (B. subtilis): >4

## Cc1cc(CSc2ccc(C(=N)N)cc2)cc(CSc2ccc(C(=N)N)cc2)c1 [drawing 744]
B. subtilis; erythromycin, NA=no activity
  SF (B. subtilis) at 6 μM: 32 fold
E. coli; erythromycin
  SF (E. coli) at 12.5 μM: 32 fold

## CO[C@@H]1[C@@H](OC(N)=O)[C@@H](O)[C@H](Oc2ccc3c(O)c(NC(=O)c4ccc(O)c(CC=C(C)C)c4)c(=O)oc3c2C)OC1(C)C [Novobiocin, novobiocin]
wild-type E. coli
  MIC: 100 µg/mL
  MIC of AB with Compound C (5 μg/ml): 1.5 µg/mL
  FIC: 0.12
[1]; [2]
  MIC: 50 µg/mL
[1]; read-out: MIC of AB with Compound C (5 μg/ml), antibiotic plus Compound C 5 μg/ml
  MIC: 1.6 µg/mL
[1]
  Sensitization fold: 32
[1]; [3]
  FIC: 0.13

## Cc1cc(COc2ccc(CN)cc2)cc(COc2ccc(CN)cc2)c1 [drawing 733]
B. subtilis; erythromycin, compound at 12.5 μM, NA=no activity
  SF (B. subtilis) at 12.5 μM: 16-fold at 12.5 μM
E. coli; erythromycin
  SF (E. coli) at 25 μM: 4-fold at 25 μM

## Cc1cc(COc2ccc(C3=NCCN3)cc2)cc(COc2ccc(C3=NCCN3)cc2)c1 [drawing 826]
M. smegmatis
  MIC: 25 µM (≈ 11 µg/mL)

## CC(C)NC(=N)c1ccc(OCc2cccc(COc3ccc(C(=N)NC(C)C)cc3F)c2F)c(F)c1 [drawing 831]
M. smegmatis
  MIC: 12 µM (≈ 6.15 µg/mL)

## Cc1cc(CSc2ccc(C3=NCCN3)cc2)cc(CSc2ccc(C3=NCCN3)cc2)c1 [drawing 745]
B. subtilis; erythromycin, compound at 3 μM
  SF (B. subtilis) at 3 μM: 4 fold
B. subtilis; erythromycin, NA=no activity
  SF (B. subtilis) at 6 μM: 16 fold
